We go through four compounds from article PMC4069108 (PLoS ONE, 2014).

Experiment [1] deals with T1, recombinant human MT1 receptor purified from Pichia pastoris (MT1 purified) (Homo sapiens, UniProt P48039).
T1 construct: gene MTNR1A; alpha-factor signal, Flag and 10-His tags
Briefly: [3H]-melatonin competition, PEG precipitation and filtration. Particulars: for MT1 purified / pKi ± SEM: purified in […] Fos14/[…] CHAPS; […] [3H]-melatonin, […] CHAPS/[…] CHS, pH […] MgCl2, […] °C, […] h. Format: binding. An excerpt: [3H]-melatonin competition, PEG precipitation and filtration on recombinant human MT1 receptor purified from Pichia pastoris (MT1 purified)

Experiment [2] deals with T2, human melatonin MT1 receptor (MT1 CHO membranes) (Homo sapiens, UniProt P48039).
T2 construct: gene MTNR1A; receptor cDNA in pcDNA3.1, no tag mentioned; crude membranes
T2 sequence (P48039 whole entry): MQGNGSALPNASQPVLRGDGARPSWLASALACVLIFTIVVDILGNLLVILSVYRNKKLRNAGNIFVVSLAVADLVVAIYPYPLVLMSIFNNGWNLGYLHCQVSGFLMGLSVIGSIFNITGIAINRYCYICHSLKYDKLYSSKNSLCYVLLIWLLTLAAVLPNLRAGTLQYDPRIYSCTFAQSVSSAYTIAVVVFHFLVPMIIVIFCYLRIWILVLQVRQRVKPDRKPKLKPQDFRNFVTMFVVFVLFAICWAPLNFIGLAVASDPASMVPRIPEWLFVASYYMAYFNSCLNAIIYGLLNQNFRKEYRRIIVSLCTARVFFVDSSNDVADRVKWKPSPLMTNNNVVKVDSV
Briefly: [3H]-melatonin competition, filtration. The class given is binding. Particulars: for MT1 CHO membranes / pKi ± SEM: CHO membranes; […] [3H]-melatonin, pH […] MgCl2, […] °C, […] h. The text has this: [3H]-melatonin competition, filtration on human melatonin MT1 receptor (MT1 CHO membranes)

T1 sequence (P48039 whole entry): as above

Consider `NCCc1c[nH]c2ccc(O)cc12` [5HT], for which the Ki in experiment [1] (read-out: MT1 purified / pKi ± SEM (converted)) and in experiment [2] (read-out: MT1 CHO membranes / pKi ± SEM (converted)) was greater than 10 µM throughout.
As for `COc1ccc(CCN(C)CCCC(C#N)(c2cc(OC)c(OC)c(OC)c2)C(C)C)cc1OC` (centres unmarked) [D600], the “MT1 purified / pKi ± SEM” value in experiment [1] was 7.25±0.06 pKi (-log M). The “MT1 CHO membranes / pKi ± SEM” value in experiment [2] is listed as 7.76±0.15 pKi (-log M).
Taken in the same sequence, the figures for `COc1ccc2ncn(CCNC(C)=O)c2c1` [S 21278] were 7.02±0.14 pKi (-log M) and 7.71±0.14 pKi (-log M).
Taken in the same sequence, the figures for `COc1ccc2[nH]c(-c3cccc4ccccc34)c(CCNC(=O)CI)c2n1` [S 70254] were 8.51±0.12 pKi (-log M) and 7.32±0.31 pKi (-log M).
